From patent US11000033B2, “Ketone or oxime compound, and herbicide” (NISSAN CHEMICAL CORPORATION, priority 2014, dated 2021)

How the values were obtained:
Format in all cases: in vivo
[1] = test system: Echinochloa oryzacola Vasing.; test: Test Example 2: herbicidal activity, application during weed generation in submerged conditions (symbol A); conditions: Table 23; application herbicide amount 320 g/ha; grade 0-5 by criteria of Test Example 1
Method in brief: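 Compound was applied as a water-diluted emulsion into the standing water of flooded pots (4 cm) once co-sown weeds reached one to two leaves. Greenhouse temperature was 25° C. to 30° C., soil was alluvial, and each species was rated visually after 3 weeks.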

Leptochloa chinensis = test: Test Example 3: herbicidal effect by foliage application, Wagner pot (symbol D); conditions: application herbicide amount 320 g/ha
Method in brief: (§1)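 In a shallow-flooded alluvial soil system held at 25–30 °C, plants including rice grew for 14 days and were then sprayed over the foliage with emulsion diluted to a fixed herbicide amount. Visual rating followed at 3 weeks.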

Cyperus difformis = test: Test Example 3: herbicidal effect by foliage application, Wagner pot (symbol E); conditions: application herbicide amount 320 g/ha
Method in brief: as §1

[2] = test system: directly sowed rice plant; test: Test Example 3: effect on crop by foliage application, Wagner pot (symbol b); conditions: application herbicide amount 320 g/ha
Method in brief: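 Greenhouse culture at 25–30 °C of seeded rice, Cyperus difformis, Leptochloa chinensis and Echinochloa crus-galli var. crus-galli, in alluvial soil held under 0.1–0.5 cm of water in a Wagner pot.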

Setaria viridis = test: Test Example 4: herbicidal effect by soil treatment (symbol G); conditions: application herbicide amount 320 g/ha
Method in brief: (§2)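 Seeds were sown in sterilized diluvial soil, covered with about 1.5 cm of soil, and the soil surface was sprayed with a water-diluted emulsion of the compound at a predetermined rate. Plants grew in a greenhouse at 25° C. to 30° C.; effects were scored visually 3 weeks after application.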

Avena fatua [3] = test: Test Example 4: herbicidal effect by soil treatment (symbol I); conditions: application herbicide amount 320 g/ha
Method in brief: as §2

Alopecurus myosuroides = test: Test Example 4: herbicidal effect by soil treatment (symbol J); conditions: application herbicide amount 320 g/ha
Method in brief: as §2

Lolium multiflorum Lam. = test: Test Example 4: herbicidal effect by soil treatment (symbol K); conditions: application herbicide amount 320 g/ha
Method in brief: as §2

Abutilon theophrasti = test: Test Example 4: herbicidal effect by soil treatment (symbol M); conditions: application herbicide amount 320 g/ha
Method in brief: as §2

Amaranthus retroflexus = test: Test Example 4: herbicidal effect by soil treatment (symbol N); conditions: application herbicide amount 320 g/ha
Method in brief: as §2

Chenopodium album [4] = test: Test Example 4: herbicidal effect by soil treatment (symbol O); conditions: application herbicide amount 320 g/ha
Method in brief: as §2

Galium spurium = test: Test Example 4: herbicidal effect by soil treatment (symbol Q); conditions: application herbicide amount 320 g/ha
Method in brief: as §2

rice = test: Test Example 4: effect on crop by soil treatment (symbol b); conditions: application herbicide amount 320 g/ha
Method in brief: (§3)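 Plants grew in a 25° C. to 30° C. greenhouse after spot-sowing of seeds, including beet, rapeseed, wheat and rice, into sterilized diluvial soil under roughly 1.5 cm of cover soil.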

wheat = test: Test Example 4: effect on crop by soil treatment (symbol e); conditions: application herbicide amount 320 g/ha
Method in brief: as §3

Avena fatua [5] = test: Test Example 5: herbicidal effect by foliage application, plastic box (symbol I); conditions: 320 g/ha, 3 weeks after application
Method in brief: (§4)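 Herbicide, formulated as an emulsion and diluted in water, is sprayed onto the aerial parts of 14-day seedlings. These were grown at 25° C. to 30° C. in sterilized diluvial soil; effects are graded after 3 weeks.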

Chenopodium album [6] = test: Test Example 5: herbicidal effect by foliage application, plastic box (symbol O); conditions: 320 g/ha, 3 weeks after application
Method in brief: as §4

Stellaria media = test: Test Example 5: herbicidal effect by foliage application, plastic box (symbol P); conditions: 320 g/ha, 3 weeks after application
Method in brief: as §4

corn = test: Test Example 5: effect on crop by foliage application, plastic box (symbol c); conditions: 320 g/ha, 3 weeks after application
Method in brief: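 Foliage-application test plants come from spot sowing in sterilized diluvial soil under a soil layer of about 1.5 cm, grown at 25° C. to 30° C. in a greenhouse.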

## CON=C(C)CC1CC(OC(=O)CCCC(C)=O)=C(c2c(C)cc(-c3ccc(Cl)cc3)cc2C)C1=O (stereo not drawn) [6-080]
[1]
  Herbicidal effect grade, A: Echinochloa oryzacola Vasing.: 5 (Herbicidal ratio of 90% or more (almost completely withered))
Leptochloa chinensis
  herbicidal effect on D (Leptochloa chinensis), grade 0-5: 5 (Herbicidal ratio of 90% or more (almost completely withered))
Cyperus difformis
  herbicidal effect on E, grade 0-5: 5 (Herbicidal ratio of 90% or more (almost completely withered))
[2]
  effect on crop b (directly sowed rice plant), grade 0-5: 5 (Herbicidal ratio of 90% or more (almost completely withered))
Setaria viridis
  G: Setaria viridis, herbicidal effect grade: 5 (Herbicidal ratio of 90% or more (almost completely withered))
Avena fatua [3]
  I: Avena fatua, herbicidal effect grade: 0 (Herbicidal ratio of 5% or lower (almost no effect))
Alopecurus myosuroides
  J: Alopecurus myosuroides, herbicidal effect grade: 5 (Herbicidal ratio of 90% or more (almost completely withered))
Lolium multiflorum Lam.
  K: Lolium multiflorum Lam., herbicidal effect grade: 5 (Herbicidal ratio of 90% or more (almost completely withered))
Abutilon theophrasti
  M: Abutilon theophrasti, herbicidal effect grade: 0 (Herbicidal ratio of 5% or lower (almost no effect))
Amaranthus retroflexus
  N: Amaranthus retroflexus, herbicidal effect grade: 1 (Herbicidal ratio of 5% or higher and lower than 20%)
Chenopodium album [4]
  O: Chenopodium album, herbicidal effect grade: 0 (Herbicidal ratio of 5% or lower (almost no effect))
Galium spurium
  Q: Galium spurium, herbicidal effect grade: 0 (Herbicidal ratio of 5% or lower (almost no effect))
rice
  b: directly sowed rice plant, effect on crop grade: 0 (Herbicidal ratio of 5% or lower (almost no effect))
wheat
  e: wheat, effect on crop grade: 0 (Herbicidal ratio of 5% or lower (almost no effect))
Avena fatua [5]
  I: Avena fatua, herbicidal effect (criteria of Test Example 1): 5 (Herbicidal ratio of 90% or more (almost completely withered))
Chenopodium album [6]
  O: Chenopodium album, herbicidal effect (criteria of Test Example 1): 0 (Herbicidal ratio of 5% or lower (almost no effect))
Stellaria media
  P: Stellaria media, herbicidal effect (criteria of Test Example 1): 0 (Herbicidal ratio of 5% or lower (almost no effect))
corn
  c: corn, effect on crop (criteria of Test Example 1): 5 (Herbicidal ratio of 90% or more (almost completely withered))

## CON=C(C)CC1CC(OC(=O)N2CCOCC2)=C(c2c(C)cc(C)cc2OC)C1=O (stereo not drawn) [6-094]
[1]
  Herbicidal effect grade, A: Echinochloa oryzacola Vasing.: 5 (Herbicidal ratio of 90% or more (almost completely withered))
Leptochloa chinensis
  herbicidal effect on D (Leptochloa chinensis), grade 0-5: 5 (Herbicidal ratio of 90% or more (almost completely withered))
Cyperus difformis
  herbicidal effect on E, grade 0-5: 5 (Herbicidal ratio of 90% or more (almost completely withered))
[2]
  effect on crop b (directly sowed rice plant), grade 0-5: 5 (Herbicidal ratio of 90% or more (almost completely withered))
Setaria viridis
  Herbicidal effect grade, G: Setaria viridis: 5 (Herbicidal ratio of 90% or more (almost completely withered))
Avena fatua [3]
  Herbicidal effect grade, I: Avena fatua: 5 (Herbicidal ratio of 90% or more (almost completely withered))
Alopecurus myosuroides
  Herbicidal effect grade, J: Alopecurus myosuroides: 5 (Herbicidal ratio of 90% or more (almost completely withered))
Lolium multiflorum Lam.
  Herbicidal effect grade, K: Lolium multiflorum Lam.: 5 (Herbicidal ratio of 90% or more (almost completely withered))
Abutilon theophrasti
  Herbicidal effect grade, M: Abutilon theophrasti: 4 (Herbicidal ratio of 70% or higher and lower than 90%)
Amaranthus retroflexus
  Herbicidal effect grade, N: Amaranthus retroflexus: 0 (Herbicidal ratio of 5% or lower (almost no effect))
Chenopodium album [4]
  Herbicidal effect grade, O: Chenopodium album: 5 (Herbicidal ratio of 90% or more (almost completely withered))
Galium spurium
  Herbicidal effect grade, Q: Galium spurium: 0 (Herbicidal ratio of 5% or lower (almost no effect))
rice
  Effect on crop grade, b: directly sowed rice plant: 5 (Herbicidal ratio of 90% or more (almost completely withered))
wheat
  Effect on crop grade, e: wheat: 0 (Herbicidal ratio of 5% or lower (almost no effect))
Avena fatua [5]
  I: Avena fatua, herbicidal effect (criteria of Test Example 1): 5 (Herbicidal ratio of 90% or more (almost completely withered))
Chenopodium album [6]
  O: Chenopodium album, herbicidal effect (criteria of Test Example 1): 5 (Herbicidal ratio of 90% or more (almost completely withered))
Stellaria media
  P: Stellaria media, herbicidal effect (criteria of Test Example 1): 3 (Herbicidal ratio of 40% or higher and lower than 70%)
corn
  c: corn, effect on crop (criteria of Test Example 1): 5 (Herbicidal ratio of 90% or more (almost completely withered))

## CON=C(C)CC1CC(OCOC(=O)c2ccccc2)=C(c2c(C)cc(-c3ccc(Cl)cc3)cc2C)C1=O (stereo not drawn) [6-083]
[1]
  Herbicidal effect grade, A: Echinochloa oryzacola Vasing.: 5 (Herbicidal ratio of 90% or more (almost completely withered))
Leptochloa chinensis
  herbicidal effect on D (Leptochloa chinensis), grade 0-5: 5 (Herbicidal ratio of 90% or more (almost completely withered))
Cyperus difformis
  herbicidal effect on E, grade 0-5: 5 (Herbicidal ratio of 90% or more (almost completely withered))
[2]
  effect on crop b (directly sowed rice plant), grade 0-5: 5 (Herbicidal ratio of 90% or more (almost completely withered))
Setaria viridis
  G: Setaria viridis, herbicidal effect grade: 5 (Herbicidal ratio of 90% or more (almost completely withered))
Avena fatua [3]
  I: Avena fatua, herbicidal effect grade: 0 (Herbicidal ratio of 5% or lower (almost no effect))
Alopecurus myosuroides
  J: Alopecurus myosuroides, herbicidal effect grade: 5 (Herbicidal ratio of 90% or more (almost completely withered))
Lolium multiflorum Lam.
  K: Lolium multiflorum Lam., herbicidal effect grade: 1 (Herbicidal ratio of 5% or higher and lower than 20%)
Abutilon theophrasti
  M: Abutilon theophrasti, herbicidal effect grade: 0 (Herbicidal ratio of 5% or lower (almost no effect))
Amaranthus retroflexus
  N: Amaranthus retroflexus, herbicidal effect grade: 0 (Herbicidal ratio of 5% or lower (almost no effect))
Chenopodium album [4]
  O: Chenopodium album, herbicidal effect grade: 0 (Herbicidal ratio of 5% or lower (almost no effect))
Galium spurium
  Q: Galium spurium, herbicidal effect grade: 0 (Herbicidal ratio of 5% or lower (almost no effect))
rice
  b: directly sowed rice plant, effect on crop grade: 0 (Herbicidal ratio of 5% or lower (almost no effect))
wheat
  e: wheat, effect on crop grade: 0 (Herbicidal ratio of 5% or lower (almost no effect))
Avena fatua [5]
  I: Avena fatua, herbicidal effect (criteria of Test Example 1): 5 (Herbicidal ratio of 90% or more (almost completely withered))
Chenopodium album [6]
  O: Chenopodium album, herbicidal effect (criteria of Test Example 1): 5 (Herbicidal ratio of 90% or more (almost completely withered))
Stellaria media
  P: Stellaria media, herbicidal effect (criteria of Test Example 1): 1 (Herbicidal ratio of 5% or higher and lower than 20%)
corn
  c: corn, effect on crop (criteria of Test Example 1): 5 (Herbicidal ratio of 90% or more (almost completely withered))

## CON=C(C)CC1CC(O)=C(c2c(C)cc(C(C)=NOC)cc2C)C1=O (stereo not drawn) [6-065]
[1]
  Herbicidal effect grade, A: Echinochloa oryzacola Vasing.: 5 (Herbicidal ratio of 90% or more (almost completely withered))
Leptochloa chinensis
  herbicidal effect on D (Leptochloa chinensis), grade 0-5: 5 (Herbicidal ratio of 90% or more (almost completely withered))
Cyperus difformis
  herbicidal effect on E, grade 0-5: 5 (Herbicidal ratio of 90% or more (almost completely withered))
[2]
  effect on crop b (directly sowed rice plant), grade 0-5: 5 (Herbicidal ratio of 90% or more (almost completely withered))
Setaria viridis
  G: Setaria viridis, herbicidal effect grade: 5 (Herbicidal ratio of 90% or more (almost completely withered))
Avena fatua [3]
  I: Avena fatua, herbicidal effect grade: 4 (Herbicidal ratio of 70% or higher and lower than 90%)
Alopecurus myosuroides
  J: Alopecurus myosuroides, herbicidal effect grade: 5 (Herbicidal ratio of 90% or more (almost completely withered))
Lolium multiflorum Lam.
  K: Lolium multiflorum Lam., herbicidal effect grade: 5 (Herbicidal ratio of 90% or more (almost completely withered))
Abutilon theophrasti
  M: Abutilon theophrasti, herbicidal effect grade: 0 (Herbicidal ratio of 5% or lower (almost no effect))
Amaranthus retroflexus
  N: Amaranthus retroflexus, herbicidal effect grade: 4 (Herbicidal ratio of 70% or higher and lower than 90%)
Chenopodium album [4]
  O: Chenopodium album, herbicidal effect grade: 3 (Herbicidal ratio of 40% or higher and lower than 70%)
Galium spurium
  Q: Galium spurium, herbicidal effect grade: 4 (Herbicidal ratio of 70% or higher and lower than 90%)
rice
  b: directly sowed rice plant, effect on crop grade: 5 (Herbicidal ratio of 90% or more (almost completely withered))
wheat
  e: wheat, effect on crop grade: 5 (Herbicidal ratio of 90% or more (almost completely withered))
Avena fatua [5]
  I: Avena fatua, herbicidal effect (criteria of Test Example 1): 5 (Herbicidal ratio of 90% or more (almost completely withered))
Chenopodium album [6]
  O: Chenopodium album, herbicidal effect (criteria of Test Example 1): 1 (Herbicidal ratio of 5% or higher and lower than 20%)
Stellaria media
  P: Stellaria media, herbicidal effect (criteria of Test Example 1): 3 (Herbicidal ratio of 40% or higher and lower than 70%)
corn
  c: corn, effect on crop (criteria of Test Example 1): 5 (Herbicidal ratio of 90% or more (almost completely withered))
